According to ChEMBL document CHEMBL2321701 (J Med Chem, 2013):
Active and inactive are the calls of the source. The calls are words filed in the database; no cut-off is given here.

Columns and labels:
[1] = system: Plasmodium berghei (mouse); assay: Antimalarial activity against chloroquine-sensitive Plasmodium berghei infected mouse assessed as survival at 30 mg/kg, po
[2] = system: Plasmodium berghei (mouse); assay: Antimalarial activity against chloroquine-sensitive Plasmodium berghei infected mouse assessed as cured animal at 30 mg/kg, po measured on day 30 postinfection
[3] = system: Plasmodium falciparum; assay: Antimalarial activity against chloroquine-sensitive Plasmodium falciparum NF54 infected mouse assessed as reduction in parasitemia at 30 mg/kg, po measured on day 3 postinfection relative to control; type: functional; parameters: scale not given: the % may be the effect or the level left
[4] = Plasma concentration in Swiss outbred mouse at 30 mg/kg, po at 24 hrs by LC-MS analysis; type: ADME, organism-based; parameters: dose 30 mg/kg, route oral
[5] = system: Plasmodium falciparum; assay: animal or person; details: NF54
[6] = Dissociation constant, pKa of the compound; type: physicochemical
[7] = system: Plasmodium falciparum; assay: microbe, parasite or virus in culture; details: K1
[8] = Lipophilicity, log D of the compound at pH 7.4; type: physicochemical; details: buffer
[9] = AUC (0 to 24 hrs) in mouse at 30 mg/kg, po by LC-MS analysis; type: ADME, organism-based; parameters: time < 24 hr, dose 30 mg/kg, route oral; details: plasma
[10] = Partition coefficient, log P of the compound; type: physicochemical; details: octanol/water
[11] = Half life in mouse whole blood; type: ADME, tissue-based
[12] = Intrinsic clearance in mouse liver microsomes at 1 uM after 60 mins by LC-MS analysis; type: ADME, Microsome; details: read-out: CLH

Compound	Survival [1]	Activity [2]	Activity [3]	concentration at 24 h [4]	IC50 [5]	pKa [6]	IC50 [7]	logD [8]	AUC(0-t) at 24 h [9]	logP [10]	half-life [11]	microsomal CLint at 1 µM [12]
CCN(CC)CCCC(C)Nc1ccnc2cc(Cl)ccc12 (configuration not stated) [CHLOROQUINE]	10 days	inactive	–	–	–	–	–	–	–	–	–	–
C[C@H]1[C@H](OC(=O)CCC(=O)O)O[C@@H]2O[C@@]3(C)CC[C@H]4[C@H](C)CC[C@@H]1[C@@]24OO3 [ARTESUNATE]	9 days	inactive	92%	–	–	–	–	–	–	–	–	–
c1cc([C@H]2CC[C@]3(CC2)OO[C@]2(O3)C3CC4CC(C3)CC2C4)ccc1OCCN1CCOCC1 [ARTEFENOMEL]	>30 days	Active	>99.9%	> 200 ng/mL	0.0034 µM	6.81	0.0028 µM	4.53	52.7 µM·h	4.63	–	–
CC(C)(N)CNC(=O)CC1CCC2(CC1)OOC1(OO2)C2CC3CC(C2)CC1C3 (configuration not stated)	9 days	inactive	99.5%	< 1 ng/mL	0.0017 µM	9.05	0.0009 µM	0.87	13.5 µM·h	2.26	54.6 min	14 µL/min/mg
CC(C)(N)CNC(=O)CC1CCC2(CC1)COC1(OO2)C2CC3CC(C2)CC1C3 (configuration not stated)	15 days	inactive	99.1%	> 10 ng/mL	0.029 µM	9.05	0.019 µM	1.05	22.4 µM·h	2.44	138 min	< 7 µL/min/mg
CC(C)(N)CNC(=O)C[C@H]1CC[C@]2(CC1)OO[C@]1(O2)C2CC3CC(C2)CC1C3 [OZ277]	11 days	inactive	99.9%	< 1 ng/mL	–	9.05	–	0.69	5.13 µM·h	2.07	55.8 min	17 µL/min/mg
O[C@@H](c1cc(C(F)(F)F)nc2c(C(F)(F)F)cccc12)[C@H]1CCCCN1 (relative stereo) [(S,R)-MEFLOQUINE]	22 days	inactive	99.6%	–	0.014 µM	–	0.0072 µM	–	–	–	–	–
CC(C)(N)CNC(=O)C[C@H]1CC[C@@]2(CC1)C[C@@]1(OO2)C2CC3CC(C2)CC1C3	–	–	–	–	0.44 µM	9.05	0.17 µM	1.83	–	3.21	60 min	12 µL/min/mg
c1cc([C@H]2CC[C@@]3(CC2)C[C@@]2(OO3)C3CC4CC(C3)CC2C4)ccc1OCCN1CCOCC1	–	–	–	–	1.2 µM	6.82	0.37 µM	5.56	–	5.66	–	28 µL/min/mg
